US20260125371A1, “METHOD FOR INHIBITING CLOSTRIDIOIDES DIFFICILE SPORE GERMINATION” (UNIVERSITY OF NOTRE DAME DU LAC, priority 2022, published 2026)
Values after ≈ are worked out from the molar mass of the structure shown.

Key:
[1] = test system: Bacteroides fragilis HM-709; experiment: MIC against Bacteroides fragilis (gut bacteria); type: cell-based; conditions: HM709
[2] = test system: Corynebacterium spp. HM-784; experiment: MIC against Corynebacterium spp. (gut bacteria); type: cell-based; conditions: SPP.HM784
C. difficile ATCC 43255 = experiment: Time-kill assay; type: cell-based, Clostridioides difficile
[3] = test system: Lactobacillus reuteri HM-102; experiment: MIC against Lactobacillus reuteri (gut bacteria); type: cell-based; conditions: Limosilactobacillus reuteri, HM102
HepG2 cells = experiment: XTT cytotoxicity assay; type: cell-based; conditions: Homo sapiens, HepG2, read-out: XTT IC50
[4] = test system: C. difficile strain ATCC43255 spores; experiment: Spore germination inhibition assay; type: cell-based, Clostridioides difficile; conditions: Clostridioides difficile, 1 h, compound 45 μM, germinant 6 mM taurocholate and 12 mM glycine, OD600 over 60 min, duplicate
[5] = test system: extended panel of Gram-positive bacteria; experiment: MIC range over extended panel of Gram-positive bacteria; type: cell-based; conditions: other than C. difficile
C. difficile strains = experiment: MIC (microdilution) against panel of 101 C. difficile strains; type: cell-based, Clostridioides difficile; conditions: for MIC: Clostridioides difficile
[6] = C. difficile strains of Table 4

With O=[N+]([O-])c1cnc(-c2nc(-c3ccc(OC4CCCC4)cc3)no2)[nH]1 [Compound 57, 3-(4-(Cyclopentyloxy)phenyl)-5-(4-nitro-1H-imidazol-2-yl)-1,2,4-oxadiazole] the MIC [1] was 128 µg/mL (≈ 375 µM), the MIC [2] was greater than 128 µg/mL and the “reduction in bacterial growth (time-kill)” value (“reduction” below) (C. difficile ATCC 43255; 4× MIC, 12 h) was no less than 3 log10. For the same molecule, the “reduction” value (C. difficile ATCC 43255; 8× MIC) was 4 log 10, the “reduction” value (C. difficile ATCC 43255; all concentrations: 1×, 2×, 4×, 8× MIC) was “Four-log10 reduction” and the MIC [3] was greater than 128 µg/mL. The IC50 (HepG2 cells) was 53.4 ± 4.5 µg/mL (≈ 156 µM), the inhibition at 45 µM [4] was less than 10% and the “activity against Gram-positive bacteria” value [5] was “not active”. The “IMIC50 (101 strains)” value (C. difficile strains; 101 C. difficile strains) was 0.5 µg/mL, the MIC50 (C. difficile strains; [6]) was 0.5 µg/mL (≈ 1.46 µM) and the MIC90 (C. difficile strains; [6]) was 1 µg/mL (≈ 2.93 µM). It also gave an MIC (C. difficile strains; ATCC43598, strain ATCC43598) of 0.5 µg/mL (≈ 1.46 µM), an MIC (C. difficile strains; BAA1801, strain BAA-1801) of 0.25 µg/mL (≈ 0.732 µM) and an MIC (C. difficile strains; BAA1804, strain BAA-1804) of 0.125 µg/mL (≈ 0.366 µM). The MIC (C. difficile strains; BAA1812, strain BAA-1812) was 0.125 µg/mL (≈ 0.366 µM), the MIC (C. difficile strains; BAA1814, strain BAA-1814) was 0.125 µg/mL (≈ 0.366 µM) and the MIC (C. difficile strains; BAA1870, strain BAA-1870) was 0.125 µg/mL (≈ 0.366 µM). It also gave an MIC (C. difficile strains; C. difficile 24531, resistant to VAN) of 0.125 µg/mL (≈ 0.366 µM), an MIC (C. difficile strains; C. difficile NR49292) of 0.125 µg/mL (≈ 0.366 µM) and an MIC (C. difficile strains; C. difficile NR49302) of 0.25 µg/mL (≈ 0.732 µM). The MIC (C. difficile strains; C. difficile NR49305) was 0.125 µg/mL (≈ 0.366 µM), the MIC (C. difficile strains; C. difficile NR49310) was 0.25 µg/mL (≈ 0.732 µM) and the MIC (C. difficile strains; strain HM-88) was 1 µg/mL (≈ 2.93 µM). It also gave an MIC (C. difficile strains; strain HM-89) of 0.5 µg/mL (≈ 1.46 µM), an MIC (C. difficile strains; strain HM-745) of 0.5 µg/mL (≈ 1.46 µM) and an MIC (C. difficile strains; strain HM-746) of 0.5 µg/mL (≈ 1.46 µM). The MIC (C. difficile strains; strain HM-747) was 0.25 µg/mL (≈ 0.732 µM), the MIC (C. difficile strains; strain NR49292) was 0.125 µg/mL (≈ 0.366 µM) and the MIC (C. difficile strains; strain NR49294) was 0.5 µg/mL (≈ 1.46 µM). For the same molecule, the MIC (C. difficile strains; strain NR49302) was 0.25 µg/mL (≈ 0.732 µM), the MIC (C. difficile strains; strain NR49305) was 0.125 µg/mL (≈ 0.366 µM) and the MIC (C. difficile strains; strain NR49310) was 0.25 µg/mL (≈ 0.732 µM). The MIC (C. difficile strains; strain NR49318) was 0.5 µg/mL (≈ 1.46 µM), the MIC (C. difficile strains; strain NR-13427) was 0.5 µg/mL (≈ 1.46 µM) and the MIC (C. difficile strains; strain NR-13428) was 0.5 µg/mL (≈ 1.46 µM). For the same molecule, the MIC (C. difficile strains; strain NR-13429) was 0.5 µg/mL (≈ 1.46 µM), the MIC (C. difficile strains; strain NR-13430) was 0.5 µg/mL (≈ 1.46 µM) and the MIC (C. difficile strains; strain NR-13431) was 0.5 µg/mL (≈ 1.46 µM). The MIC (C. difficile strains; strain NR-13433) was 1 µg/mL (≈ 2.93 µM), the MIC (C. difficile strains; strain NR-13434) was 0.125 µg/mL (≈ 0.366 µM) and the MIC (C. difficile strains; strain NR-13435) was 0.5 µg/mL (≈ 1.46 µM). It also gave an MIC (C. difficile strains; strain NR-13436) of 0.5 µg/mL (≈ 1.46 µM), an MIC (C. difficile strains; strain NR-13437) of 0.5 µg/mL (≈ 1.46 µM) and an MIC (C. difficile strains; strain NR-13438) of 0.25 µg/mL (≈ 0.732 µM). For the same molecule, the MIC (C. difficile strains; strain NR-13553) was 0.125 µg/mL (≈ 0.366 µM), the MIC (C. difficile strains; strain NR-32882) was 0.5 µg/mL (≈ 1.46 µM) and the MIC (C. difficile strains; strain NR-32883) was 0.5 µg/mL (≈ 1.46 µM). For the same molecule, the MIC (C. difficile strains; strain NR-32884) was 0.5 µg/mL (≈ 1.46 µM), the MIC (C. difficile strains; strain NR-32885) was 0.5 µg/mL (≈ 1.46 µM) and the MIC (C. difficile strains; strain NR-32886) was 0.5 µg/mL (≈ 1.46 µM). The MIC (C. difficile strains; strain NR-32887) was 1 µg/mL (≈ 2.93 µM), the MIC (C. difficile strains; strain NR-32888) was 1 µg/mL (≈ 2.93 µM) and the MIC (C. difficile strains; strain NR-32889) was 1 µg/mL (≈ 2.93 µM). For the same molecule, the MIC (C. difficile strains; strain NR-32890) was 0.125 µg/mL (≈ 0.366 µM), the MIC (C. difficile strains; strain NR-32891) was 0.5 µg/mL (≈ 1.46 µM) and the MIC (C. difficile strains; strain NR-32892) was 0.25 µg/mL (≈ 0.732 µM). For the same molecule, the MIC (C. difficile strains; strain NR-32895) was 0.25 µg/mL (≈ 0.732 µM) and the MIC (C. difficile strains; strain NR-32896) was 0.25 µg/mL (≈ 0.732 µM).
